Results reported in patent US20040087543A1, “Methods and products for mucosal delivery” (priority 2002, published 2004).
Like-named read-outs stand apart in the source and are kept apart here.

Details: rabbit, in vivo, sc
Experimental: For the rabbit model, 2.5-3 kg New Zealand male rabbits were used with 3 rabbits per group. Rabbits were allowed to adapt for 7 days and free access to water and food. Ketamine (40 mg/kg) and Xylazine (5 mg/kg) were used to anesthetize the rabbits. To withdraw blood samples, a 24-gauze Teflon catheter was inserted into the center auricular artery. The catheter was connected to a heparin cap filled with 0.9% saline solution.
Enoxaparin at doses of 3 and 6 mg/kg was given by subcutaneous injection at time 0. Blood samples were collected 0, 3, 5, 10, 15, 30 min, 1, 2, 3, 4, 6, 8, 12 hours after subcutaneous injection and processed as described above. The plasma was collected at indicated times and analyzed for anti-Xa assay as described. Enoxaparin for subcutaneous injection was formulated as a solution in PBS or water at 100 mg/ml concentration and appropriate doses were injected.
An anti-Xa assay was used to monitor plasma LMWH levels. The anti-Xa assay was performed using a modification of the amidolytic method of Teien and Lie (Thrombosis res. 10: 399-410, 1977) with the Coatest heparin test kit by using S-2222 as the chromogenic substrate (Diapharma Group, Inc. OH). […] The concentration of enoxaparin in unknown samples was calculated by comparing readings to the calibration curve which was linear in the range of 0.1-0.7 IU/ml.
Experimental data, expressed in anti-Xa IU/mL, was utilized for non-linear regression curves based on a one-compartment model (Comelli and Fareed, Semin thromb Hemost, 25: 57-61, 1999) by using SigmaPlot program with the method of extended least squares. From the kinetic curves, the following parameters were calculated: the area under curve (AUC expressed in IU*hr*ml^−1), absorption half-life (t1/2 expressed in hr); and half-life of apparent elimination (t1/2e expressed in hr). The AUC (0-t) was calculated using the trapezoidal rule (Rowland and Tozer, Clinical Pharmacokinetics. Concepts and Applications. 459-461, Lea and Febiger, 1989) and extrapolated to infinity (AUC) by dividing the value of the last measured concentration by the elimination rate constant.

Row | absorption half-life | AUC (IU*hr/mL) (3 mg/kg) | Ka (3 mg/kg) | Ke (3 mg/kg) | MRT (AUMC/AUC) (3 mg/kg) | AUC (IU*hr/mL) (6 mg/kg) | Ka (6 mg/kg) | Ke (6 mg/kg) | MRT (AUMC/AUC) (6 mg/kg) | Substance
1 | 1 to 2 h | 6.93 IU*hr/mL | 0.40 | 0.33 h⁻¹ | 4.97 h | 13.27 IU*hr/mL | 0.32 | 0.27 h⁻¹ | 5.93 h | dalteparin
2 | 1 to 2 h | 6.27 IU * hr/mL | 0.40 | 0.35 h⁻¹ | 4.75 h | 13.45 IU * hr/mL | 0.35 | 0.3 h⁻¹ | 5.48 h | enoxaparin
